Legend:
primary CLL cells = assay: Ex vivo viability (Annexin V) and proliferation (CFDA) of primary CLL cells with AE, HS-5 stroma and CpG+IL-2, drug dose response; assay type: cell-based; settings: 96 hours, 1.6% AE, 10% Human Serum, HS-5 100:1, CpG ODN + IL-2, 8 concentrations
primary MM cells = assay: Ex vivo viability (Annexin V) and proliferation (CFDA) of primary MM cells in whole BM with AE (autologous plasma), lenalidomide dose response; assay type: cell-based, human; settings: 96 hours, 20% autologous plasma (AE)
Excerpt: Patient whole BM was obtained and prepared as indicated above for each sample type. The Vybrant® CFDA SE Cell Tracer Kit (Molecular Probes) was used to measure cell proliferation as it has been disclosed in Example 3. After the CFDA protocol, all samples were resuspented in Culture Medium+Zell Shield (Labclinics)+L-Glu (Lonza)+20% FBS. Condition A samples stayed as is, condition B samples had different concentrations of autologous MM plasma plus RBCs added and condition C samples received 20% autologous plasma. The final cell concentration ranged from 20 cells/μl to 70 cells/μl. Alternatively, the autologous plasma can be replaced with a pool of three MM plasmas.
The CFDA labeled plasmatic cells were dispensed into 96-well plates (60 μl/well) and incubated at 37° C. with 5% CO2 during 72 or 96 hours. For analysis, MM cells (assessed by monoclonal antibodies) were tested for both viability (Annexin-V staining) and proliferation (CFDA).
After 96 hours of culture, the CFDA staining in conjunction with the immunophenotyping allowed for the analysis of both viability (Annexin-V negative) and proliferation (CFDA peaks) of the plasmatic cells, following the previously described methods using Vivia's ExviTech platform.
As the number of MM cells detected after 96 hours of incubation was too low in just a single well, a pooled well assay was performed, obtaining sample from 4 wells that have been treated in an identical manner. […] According to this, and based on the initial cell count, calculation of the sample volume was done for plating between 1000 and 4000 live pathological MM cells per well. During acquisition, sample from four wells was obtained for each treatment, thus obtaining a minimum of 4000 and a maximum of 16000 live plasmatic cells. The results of these experiments indicate that the use of patient's whole bone marrow plus 20% of autologous plasma, or a pool of at least 3 MM plasmas (Condition C from above) and the use of IMDM culture medium provided the best conditions to achieve better MM cells viability and higher proliferation rates (data not shown). Additionally, the presence of either of the two human stromal cell lines, HS27a and HS5, appeared to have a negative effect on both viability and proliferation.
Some drugs used to treat tumor cells preferentially target cells that are actively proliferating, acting as anti-proliferative agents. An example of this is the use of lenalidomide to treat patients diagnosed with MM. The efficacy of lenalidomide is difficult to assess in ex vivo assays against MM primary tumor cells, as these cells have very low levels of proliferation under the conditions that have traditionally been used. In this example, we tested BM samples from 10 patients diagnosed with MM in our ex vivo assay. AE (plasma only) was added to the culture medium to increase levels of proliferation and lenalidomide was tested across a concentration range of 0.03 to 30 μM.
Whole BM from 10 MM patients was cultured in IMDM medium supplemented with 1% antibiotic, 1% L-Glutamine plus an additional 20% of autologous plasma (AE), for 96 hours. Samples were processed and analyzed as outlined in Example 12. MM cell viability (Annexin V) and proliferation (CFDA) were tested against 4 concentrations of Lenalidomide.

SMILES	effect on Non-Proliferative (NP) Live Tumor Cells (survival index) (primary CLL cells; NP fraction)	inhibition of the proliferation, Proliferative (PR) cell fraction (survival index) (primary CLL cells; PR fraction)	effect on NP MM cells (survival index) (primary MM cells; sample 1, 0.03 to 30 μM)	effect on PR MM cells (survival index) (primary MM cells; sample 1, 0.03 to 30 μM)	PR cells eliminated (primary MM cells; sample 3)	NP cells eliminated (primary MM cells; sample 3, at a higher concentration)	potency against the PR population (primary MM cells; sample 3, low concentration)	effect in the NP population (primary MM cells; sample 6)	effect on the PR population (primary MM cells; sample 6)	effect against the PR cells (primary MM cells; sample 7)	effect on the NP cells (primary MM cells; sample 7, at a higher concentration)
CC[C@H](Nc1ncnc2[nH]cnc12)c1nc2cccc(F)c2c(=O)n1-c1ccccc1 [Idelalisib]	little effect	potent inhibition of the proliferation is observed in the low nM range	–	–	–	–	–	–	–	–	–
Nc1cccc2c1CN(C1CCC(=O)NC1=O)C2=O (centres unmarked) [lenalidomide]	–	–	no effect	no effect	about 60%	about 20%	very potent	small effect	no effect	very potent and effective	effects the NP cells

Reference: US20190212325A1, “AN EX VIVO METHOD FOR TESTING CELLULAR RESPONSEIVENESS OF PRIMARY CELL POPULATIONS TO A DRUG OR COMBINATION OF DRUGS” (VIVIA BIOTECH, S.L, priority 2015, published 2019)
